For 15 molecules, MIC results are on record in US5151417A, “3-substituted vinyl cephalosporin derivatives” (Eisai Co., Ltd., priority 1989, dated 1992).

Converted amounts (≈) assume the structure as drawn. Where two headings read alike, the source gives them in different places.

Common to all, as to format: cell-based
For assay [1], the system named is Morganella morganii IID 602. The experiment in a line: In vitro antibacterial activity, Morganella morganii IID 602 (Table 1). The following applies: IID602. The method, then:
(§1) Typical compounds out of the compounds described in Examples were classified into some groups. On each compound group, in vitro antibacterial activities were tested by a method known per se in the art.

Assay [2] deals with Staphylococcus aureus 209PJCl. The experiment in a line: In vitro antibacterial activity, Staphylococcus aureus 209PJCl (Table 1). The method, then: as §1
In assay [3] the test system is Serratia marcescens IID 620. The experiment in a line: In vitro antibacterial activity, Serratia marcescens IID 620 (Table 1). The following applies: IID620. The protocol:
as §1

Assay [4] relates to Klebsiella pneumoniae IID 875. The experiment in a line: In vitro antibacterial activity, Klebsiella pneumoniae IID 875 (Table 1). The following applies: IID875. The method, then: as §1
For assay [5], the system named is Escherichia coli MIHJ JC-2. The experiment in a line: In vitro antibacterial activity, Escherichia coli MIHJ JC-2 (Table 1). The following applies: MIHJJC2. The protocol:
as §1

For assay [6], the system named is Klebsiella pneumoniae EK-6. The experiment in a line: In vitro antibacterial activity, Klebsiella pneumoniae EK-6 (Tables 2-6). The following applies: Klebsiella pneumoniae. The method, then:
as §1

Assay [7] relates to Escherichia coli NIHJ. The experiment in a line: In vitro antibacterial activity, Escherichia coli NIHJ (Tables 2-6). The protocol: as §1
Assay [8] concerns Staphylococcus aureus 209-P. The experiment in a line: In vitro antibacterial activity, Staphylococcus aureus 209-P (Tables 2-6). The following applies: Staphylococcus aureus, 209P. The protocol:
as §1

The subject of assay [9] is Serratia marcescens ES-75. The experiment in a line: In vitro antibacterial activity, Serratia marcescens ES-75 (Tables 2-6). The protocol: as §1
The test system of assay [10] is Morganella morganii EP-14. The experiment in a line: In vitro antibacterial activity, Morganella morganii EP-14 (Tables 2-6). The method, then: as §1
[11] abbreviates: Morganella morganii IID 602, read-out: MIC.
[12] abbreviates: Staphylococcus aureus 209PJCl, read-out: MIC.
Where [13] appears, read: Serratia marcescens IID 620, read-out: MIC.
Setting [14] is: Klebsiella pneumoniae IID 875, read-out: MIC.
Setting [15] is: Escherichia coli MIHJ JC-2, read-out: MIC.
The mark [16] stands for this setting: EK6, Klebsiella pneumoniae EK-6, read-out: MIC.
Where [17] appears, read: Escherichia coli, Escherichia coli NIHJ, read-out: MIC.
The mark [18] stands for this setting: Staphylococcus aureus 209-P, read-out: MIC.
The mark [19] stands for this setting: Serratia marcescens, ES75, Serratia marcescens ES-75, read-out: MIC.
[20] abbreviates: Morganella morganii, EP14, Morganella morganii EP-14, read-out: MIC.

For the molecule `CO/N=C(\C(=O)NC1C(=O)N2C(C(=O)[O-])=C(/C=C\COC(N)=O)CS[C@H]12)c1csc(N)n1.[Na+]` (stereo partly drawn) [Example 7, Sodium 7-[(Z)-2-(2-aminothiazol-4-Yl)-2-methoxyiminoacetamido]-3-[(Z)-3-carbamoyloxy-1-propenyl]-3-cephem-4-carboxylate], the minimum inhibitory concentration (MIC) (commonly the lowest concentration that inhibits growth of the organism) was determined as 0.025 µg/mL in assay [1] (Morganella morganii); 0.8 µg/mL in assay [2] (Staphylococcus aureus, 209PJCL); 0.025 µg/mL in assay [3] (Serratia marcescens); 0.025 µg/mL in assay [4] (Klebsiella pneumoniae); 0.2 µg/mL in assay [5] (Escherichia coli).

For `Nc1nc(/C(=N/O)C(=O)NC2C(=O)N3C(C(=O)O)=C(/C=C/Cn4ncnn4)CSC23)cs1` (stereo not drawn) [Example 12, 7-[2-(2-Aminothiazole)-2-hydroxyiminoacetamido]-3-(3-2H-tetrazolyl-1-propenyl-1-yl)-3-cephem-4-carboxylic Acid], the MIC is 0.05 µg/mL (≈ 0.105 µM) in assay [1] (setting [11]); 0.1 µg/mL (≈ 0.209 µM) in assay [2] (setting [12]); 0.8 µg/mL (≈ 1.68 µM) in assay [3] (setting [13]); 0.1 µg/mL (≈ 0.209 µM) in assay [4] (setting [14]); 0.1 µg/mL (≈ 0.209 µM) in [5] (setting [15]).

On to `CO/N=C(\C(=O)N[C@@H]1C(=O)N2C(C(=O)OCOC(=O)C(C)(C)C)=C(/C=C/C3CCC(=O)O3)CS[C@H]12)c1csc(N)n1` (stereo partly drawn) [Example 53, Pivaloyloxymethyl 7β-[(Z)-2-aminothiazol-4-yl-2-methoxyiminoacetamido]-3-[(E)-2-(5 oxotetrahydrofuran-2-yl)vinyl]-3-cephem-4-carboxylate], for which the MIC was found to be 0.025 µg/mL (≈ 0.0411 µM) in [6] (setting [16]); 0.025 µg/mL (≈ 0.0411 µM) in assay [7] (setting [17]); 0.1 µg/mL (≈ 0.165 µM) in assay [8] (setting [18]); 0.05 µg/mL (≈ 0.0823 µM) in assay [9] (setting [19]); 0.025 µg/mL (≈ 0.0411 µM) in [10] (setting [20]).

Turning to `CNC(=O)OC/C=C\C1=C(C(=O)[O-])N2C(=O)C(NC(=O)/C(=N\O)c3csc(N)n3)[C@H]2SC1.[Na+]` (stereo partly drawn) [Example 9, Sodium 7-[(Z)-2-(2-aminothiazol-4-yl)-2-hydroxyiminoacetamido]-3-[(Z)-3-(N-methylcarbamoyloxy)-1-propenyl]-3-cephem-4-carboxylate], the minimal inhibitory concentration (MIC) in assay [1] (Morganella morganii) came out at 0.1 µg/mL; in assay [2] (Staphylococcus aureus, 209PJCL), 0.1 µg/mL; in assay [3] (Serratia marcescens), 0.8 µg/mL; in assay [4] (Klebsiella pneumoniae) it was 0.012 µg/mL; in [5] (Escherichia coli) it was 0.05 µg/mL.

Take `CNC(=O)OC/C=C\C1=C(C(=O)[O-])N2C(=O)C(NC(=O)/C(=N\O)c3csc(N)n3)[C@H]2SC1.[Na+]` (stereo partly drawn) [Example 33, Sodium 7-[(Z)-2-(2-aminothiazol-4-yl)-2-hydroxyiminoacetamido]-3-[(Z)-3-(N-methylcarbamoyloxy)-1-propenyl]-3-cephem-4-carboxylate]: the MIC in assay [6] (EK6) is 0.012 µg/mL; in assay [7] (Escherichia coli), 0.025 µg/mL; in [8], 0.1 µg/mL; in [9] (Serratia marcescens, ES75) it was 0.025 µg/mL; in assay [10] (Morganella morganii, EP14), not above 0.006 µg/mL.

For `NC(=O)OC/C=C\C1=C(C(=O)[O-])N2C(=O)C(NC(=O)/C(=N\O)c3csc(N)n3)[C@H]2SC1.[Na+]` (stereo partly drawn) [Example 1, Sodium 7-[(Z)-2-(2-aminothiazol-4-yl)-2-hydroxyiminoacetamido]-3-[(Z)-3-carbamoyloxy-1-propenyl]-3-cephem-4-carboxylate], the minimal inhibitory concentration (MIC) in assay [1] (Morganella morganii) is 0.012 µg/mL; in [2] (Staphylococcus aureus, 209PJCL) it was 0.1 µg/mL; in [3] (Serratia marcescens), 0.025 µg/mL; in assay [4] (Klebsiella pneumoniae), 0.012 µg/mL; in assay [5] (Escherichia coli), 0.025 µg/mL.

For the molecule `Nc1nc(/C(=N/O)C(=O)N[C@@H]2C(=O)N3C(C(=O)[O-])=C(/C=C/c4cncnc4N)CS[C@H]23)cs1.[Na+]` [Example 23, Sodium 7β[(Z)-2-(2-aminothiazol-4-yl)-2-(hydroxyimino)acetamido]-3-[(E)-2-(4-aminopyrimidin-5-yl)vinyl]-3-cephem-4-carboxylate], the minimum inhibitory concentration (MIC) in assay [6] (EK6) was 0.025 µg/mL; in assay [7] (Escherichia coli), 0.4 µg/mL; in assay [8], 0.2 µg/mL; in assay [9] (Serratia marcescens, ES75) it was more than 100 µg/mL; in assay [10] (Morganella morganii, EP14) it was 0.012 µg/mL.

With `Nc1nc(/C(=N/O)C(=O)N[C@@H]2C(=O)N3C(C(=O)O)=C(/C=C/C4CCCO4)CS[C@H]23)cs1` (single isomer, unassigned) [50 A], the MIC was determined as 0.2 µg/mL (≈ 0.43 µM) in assay [6] (setting [16]); 0.2 µg/mL (≈ 0.43 µM) in [7] (Escherichia coli NIHJ); 0.1 µg/mL (≈ 0.215 µM) in assay [8] (setting [18]); 0.1 µg/mL (≈ 0.215 µM) in assay [9] (Serratia marcescens ES-75); 0.05 µg/mL (≈ 0.107 µM) in assay [10] (Morganella morganii EP-14).

On to `CO/N=C(\C(=O)N[C@@H]1C(=O)N2C(C(=O)[O-])=C(/C=C\c3c(Cl)ncnc3Cl)CS[C@H]12)c1csc(N)n1.[Na+]` [Example 29 (Z), Sodium 7β-[(Z)-2-(2-aminothiazol-4-yl)-2-(methoxyimino)acetamido]-3-[(Z)-2-(4,6-dichloropyrimidin-5-yl)vinyl]-3-cephem-4-carboxylate], for which the MIC came out at 7.56 µg/mL in assay [6] (EK6); 3.13 µg/mL in assay [7] (Escherichia coli); 1.56 µg/mL in assay [8]; 3.13 µg/mL in assay [9] (Serratia marcescens, ES75); 0.8 µg/mL in [10] (Morganella morganii, EP14).

For `Cc1ncc(/C=C\C2=C(C(=O)O)N3C(=O)[C@@H](NC(=O)/C(=N\O)c4csc(N)n4)[C@H]3SC2)cn1` [Example 21], the MIC in [6] (setting [16]) came out at 0.1 µg/mL (≈ 0.205 µM); in [7] (setting [17]), 0.2 µg/mL (≈ 0.41 µM); in assay [8] (setting [18]), 0.2 µg/mL (≈ 0.41 µM); in assay [9] (setting [19]), 0.2 µg/mL (≈ 0.41 µM); in [10] (setting [20]) it was 0.025 µg/mL (≈ 0.0513 µM).

For the molecule `CO/N=C(\C(=O)N[C@@H]1C(=O)N2C(C(=O)[O-])=C(/C=C/C3CCC(=O)O3)CS[C@H]12)c1csc(N)n1.[Na+]` (stereo partly drawn) [Example 52, Sodium 7β-[(Z)-2-aminothiazol-4-yl-2-methoxyiminoacetamido]-3-[(E)-2-(5-oxotetrahydrofuran 2-yl)vinyl]-3-cephem-4-carboxylate], the MIC was 0.025 µg/mL in assay [6] (EK6); 0.1 µg/mL in assay [7] (Escherichia coli); 0.4 µg/mL in [8]; 0.012 µg/mL in assay [9] (Serratia marcescens, ES75); not above 0.006 µg/mL in assay [10] (Morganella morganii, EP14).

In the case of `NC(=O)OC/C=C/C1=C(C(=O)[O-])N2C(=O)C(NC(=O)/C(=N\O)c3csc(N)n3)[C@H]2SC1.[Na+]` (stereo partly drawn) [Example 13, Sodium 7-[(Z)-2-(2-aminothiazol-4-yl)-2-hydroxyiminoacetamido]-3-[(E)-3-carbamoyloxy-1-propenyl]-3-cephem-4-carboxylate], the minimal inhibitory concentration (MIC) was found to be 0.05 µg/mL in assay [1] (Morganella morganii); 0.1 µg/mL in assay [2] (Staphylococcus aureus, 209PJCL); 0.1 µg/mL in assay [3] (Serratia marcescens); 0.025 µg/mL in assay [4] (Klebsiella pneumoniae); 0.1 µg/mL in assay [5] (Escherichia coli).

In the case of `CO/N=C(\C(=O)N[C@@H]1C(=O)N2C(C(=O)O)=C(/C=C\c3cncnc3)CS[C@H]12)c1csc(N)n1` [Example 14], the MIC came out at 0.2 µg/mL (≈ 0.41 µM) in assay [6] (setting [16]); 0.4 µg/mL (≈ 0.82 µM) in [7] (setting [17]); 0.8 µg/mL (≈ 1.64 µM) in assay [8] (setting [18]); 0.8 µg/mL (≈ 1.64 µM) in assay [9] (setting [19]); 0.05 µg/mL (≈ 0.103 µM) in [10] (setting [20]).

For `CO/N=C(\C(=O)N[C@@H]1C(=O)N2C(C(=O)O)=C(/C=C/C3CCCO3)CS[C@H]12)c1csc(N)n1` (single isomer, unassigned) [48 A], the MIC in assay [6] (setting [16]) was 0.2 µg/mL (≈ 0.417 µM); in [7] (setting [17]), 0.4 µg/mL (≈ 0.834 µM); in assay [8] (setting [18]), 0.4 µg/mL (≈ 0.834 µM); in assay [9] (Serratia marcescens ES-75), 0.025 µg/mL (≈ 0.0521 µM); in assay [10] (Morganella morganii EP-14), 0.025 µg/mL (≈ 0.0521 µM).

`Nc1nc(/C(=N/O)C(=O)NC2C(=O)N3C(C(=O)O)=C(/C=C/Cn4cnnn4)CSC23)cs1` (stereo not drawn) [Example 11, 7-[2-(2-Aminothiazole)-2-hydroxyiminoacetamido]-3-(3-1H-tetrazolyl-1-propenyl-1-yl)-3-cephem-4-carboxylate]: the MIC in [1] (setting [11]) was determined as 0.05 µg/mL (≈ 0.105 µM); in [2] (setting [12]) it was 0.1 µg/mL (≈ 0.209 µM); in assay [3] (setting [13]) it was 0.8 µg/mL (≈ 1.68 µM); in assay [4] (setting [14]), 0.05 µg/mL (≈ 0.105 µM); in assay [5] (setting [15]), 0.1 µg/mL (≈ 0.209 µM).
